Reference: patent US12509437B2, “Substituted thiophene carboxamides and derivatives thereof as microbicides” (Bayer Aktiengesellschaft, priority 2019, dated 2025)
Marks after values point to notes of the source that are not given here.

Assays:
[1] = test system: Colletotrichum lindemuthianum; assay: In vivo preventive test on Colletotrichum lindemuthianum (Anthracnose on bean); details: Colletotrichum lindemuthianum, 144 h, sprayed 72 hours before inoculation, evaluated 6 days after inoculation, read-out: efficacy; for pest or weed control at 125 ppm: 125 ppm of active ingredient
Procedure, shortened: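 Young bean plants were sprayed with compound in acetone/DMSO/Tween diluted in water, then inoculated 72 h later with C. lindemuthianum spores. Incubation was 24 h at 20 °C/100% RH, then 5 days at 20 °C/90% RH. Efficacy scored 6 days post-inoculation: 0% equals solvent-treated control, 100% means no disease.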

[2] = test system: salicylate responsive promoter sequence of the PR1 (pathogenesis-related protein I) gene (AT2G14610); assay: Induction of defense gene expression in Arabidopsis thaliana (PR1 promoter-GFP reporter plants); assay type: in vivo; details: 72 h, 3rd day after spraying, mock treated leaves set as 1.00, read-out: relative fluorescence value
Procedure, shortened: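 Transgenic A. thaliana carrying GFP under the salicylate-responsive PR1 promoter, grown five days, then sprayed with compounds. Whole-plant fluorescence imaged and quantified on day 3 post-spray, expressed relative to mock-treated leaf background set at 1.00.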

[3] = LogP by HPLC on reversed phase columns (EEC directive 79/831 Annex V.A8); assay type: physicochemical; details: reversed phase HPLC columns; method [a]
Procedure, shortened: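 Reversed-phase HPLC, calibrated with straight-chain alkan-2-ones (C3–C16) of known LogP; values by linear interpolation of retention times between successive alkanones. Multiple values from one method are joined by "+"; lambda-max taken from 200–400 nm UV spectra at chromatographic peaks.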

[4] = test system: Alternaria alternata; assay: Alternaria alternata in vitro cell test; assay type: cell-based; details: 120 h, 5 days incubation, read-out: efficacy (inhibition of fungal growth; no direct activity); for inhibition at 5 ppm: 5 ppm of active ingredient; for inhibition at 20 ppm: 20 ppm of active ingredient
Procedure, shortened: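 A. alternata spores in glucose/peptone/yeast-extract liquid medium were exposed to DMSO-solubilized compound (final DMSO ≤1%). After 5 days incubation, mycelium growth read spectrometrically; inhibition derived from absorbance relative to fungicide-free control wells.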

[5] = test system: Pseudomonas syringae pv. tomato; assay: Pseudomonas syringae pv. tomato in vitro cell test; assay type: cell-based; details: 20 ppm of active ingredient, 24 h of incubation, read-out: efficacy (inhibition of bacteria growth; no direct activity)
Procedure, shortened: (§1)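 Bacteria from liquid pre-culture diluted to set OD in LB broth and exposed to compounds dissolved in DMSO (final ≤1%). After 24 h, growth read by absorbance; inhibition derived relative to compound-free control wells.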

[6] = test system: Xanthomonas campestris pv. campestris; assay: In vivo preventive test on Xanthomonas campestris pv. campestris (black rot on cabbage); details: sprayed 72 hours before inoculation, evaluated 8 or 10 days after inoculation; for pest or weed control at 500 ppm: 500 ppm of active ingredient
Procedure, shortened: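 Young cabbage plants sprayed preventively with compound formulated in acetone/DMSO/Tween and diluted in water, then inoculated 72 h later with a bacterial spray. Kept at 27° C, 95% relative humidity; disease scored after 8 or 10 days as % efficacy versus solvent-treated controls (0% = control, 100% = no disease).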

[7] = test system: Colletotrichum lindemuthianum; assay: Colletotrichum lindemuthianum in vitro cell test; assay type: cell-based; details: 144 h, 6 days incubation, read-out: efficacy (inhibition of fungal growth; no direct activity); for inhibition at 5 ppm: 5 ppm of active ingredient
Procedure, shortened: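 C. lindemuthianum spore suspension grown in liquid glucose/peptone/yeast-extract medium with compound (final DMSO ≤1%). After 6 days, mycelial growth measured by absorbance; inhibition calculated versus fungicide-free control wells.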

[8] = test system: Uromyces appendiculatus; assay: In vivo preventive test on Uromyces appendiculatus (bean rust); details: 240 h, sprayed 72 hours before inoculation, evaluated 10 days after inoculation, read-out: efficacy; for pest or weed control at 125 ppm: 125 ppm of active ingredient; for pest or weed control at 31 ppm: 31 ppm of active ingredient; for pest or weed control at 500 ppm: 500 ppm of active ingredient
Procedure, shortened: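 Young bean plants sprayed with compound in acetone/DMSO/Tween diluted in water, then inoculated 72 h later with spore suspension. Incubated 24 h at 20° C., 100% RH, then 9 days at 20° C., 70-80% RH. Efficacy scored 10 days post-inoculation, 0% = untreated-control level, 100% = no disease.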

[9] = test system: Peronospora parasitica; assay: In vivo preventive test on Peronospora parasitica (Crucifer downy mildew) on cabbage; details: Hyaloperonospora parasitica, 120 h, sprayed 72 hours before inoculation, evaluated 5 days after inoculation, read-out: efficacy; for pest or weed control at 31 ppm: 31 ppm of active ingredient; for pest or weed control at 125 ppm: 125 ppm of active ingredient; for pest or weed control at 500 ppm: 500 ppm of active ingredient
Procedure, shortened: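 Young cabbage plants were sprayed with compound in aqueous acetone/DMSO/Tween, then inoculated 72 h later with P. parasitica spores and held 5 days at 20 °C, 100% RH. Efficacy scored 5 days post-inoculation: 0% equals solvent-treated controls, 100% means no disease.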

[10] = test system: Xanthomonas campestris pv. campestris; assay: Xanthomonas campestris pv. campestris in vitro cell test; assay type: cell-based; details: 24 h of incubation, read-out: efficacy (inhibition of bacteria growth; no direct activity); for inhibition at 5 ppm: 5 ppm of active ingredient; for inhibition at 20 ppm: 20 ppm of active ingredient
Procedure, shortened: as §1

[11] = test system: Pseudomonas syringae pv. tomato; assay: In vivo preventive test on Pseudomonas syringae pv. tomato (bacterial speck on tomato); details: sprayed 72 hours before inoculation, evaluated 5 or 6 days after inoculation, read-out: efficacy; for pest or weed control at 500 ppm: 500 ppm of active ingredient
Protocol: The tested active ingredients were prepared by homogenization in a mixture of acetone/Dimethyl sulfoxide/Tween®, and then diluted with water to obtain the desired active material concentration.
The young plants of tomato were treated by spraying the active ingredient prepared as described above. Control plants were treated only with an aqueous solution of acetone/Dimethyl sulfoxide/Tween®.
After 72 hours, the plants were contaminated by spraying the leaves with an aqueous bacteria suspension of Pseudomonas syringae pv. tomato. The contaminated tomato plants were incubated for 4 days in saturated atmosphere at 22° C. day/20° C. night−70% HR and then for 1 or 2 days at 22° C. day/20° C. night at 70-80% relative humidity.
The test was evaluated 5 or 6 days after the inoculation. 0% means an efficacy which corresponds to that of the control plants while an efficacy of 100% means that no disease was observed.

[12] = Xanthomonas campestris, 31 ppm of active ingredient, read-out: efficacy
[13] = Xanthomonas campestris, read-out: efficacy

chromatographic logP [3] | Structure (SMILES) | pest or weed control at 125 ppm [1] [%] | fold induction at 75 ppm [2] | fold induction at 300 ppm [2] | inhibition at 5 ppm [4] [%] | inhibition at 20 ppm [4] [%] | inhibition at 20 ppm [5] [%] | pest or weed control at 31 ppm [6, 12] [%] | inhibition at 5 ppm [7] [%] | pest or weed control at 125 ppm [8] [%] | pest or weed control at 31 ppm [9] [%] | pest or weed control at 125 ppm [9] [%] | inhibition at 5 ppm [10] [%] | inhibition at 20 ppm [10] [%] | pest or weed control at 31 ppm [8] [%] | pest or weed control at 500 ppm [11] [%] | pest or weed control at 500 ppm [8] [%] | pest or weed control at 500 ppm [9] [%] | pest or weed control at 500 ppm [6, 13] [%] | further results
2.62 | Cc1c(C(=O)NC2(C(=O)O)CCC2)sc(Cl)c1Cl [I.175] | 70 to 79 | > 2 | > 2 | ≤ 30 | ≤ 30 | ≤ 30 | 70 to 79 | ≤ 30 | 70 to 79 | 90 to 100 | 90 to 100 | ≤ 30 | ≤ 30 |  |  |  |  |  | pest or weed control at 125 ppm ([6]; Xanthomonas campestris, 125 ppm of active ingredient, read-out: efficacy): 80 to 89%; inhibition at 20 ppm ([7]; 20 ppm of active ingredient): ≤ 30%
 | COC(=O)C(NC(=O)c1cc(Br)c(Br)s1)C1CC1 (centres unmarked) [CMP10, reference compound] |  |  |  |  |  |  | < 30 |  |  | < 30 |  |  |  | 0 |  |  |  |  | pest or weed control at 125 ppm ([11]; 125 ppm of active ingredient): < 40%
3.81 | CCSC(=O)C1(NC(=O)c2sc(Br)c(Br)c2C)CC1 [I.128] |  | > 2 | > 2 |  |  |  |  |  |  |  | 90 to 100 |  |  |  | 70 to 79 | 90 to 100 | 90 to 100 |  | 
2.58 | CCOC(=O)C(CO)NC(=O)c1sc(Br)c(Br)c1C (centres unmarked) [I.006] |  | > 2 | > 2 | ≤ 30 | ≤ 30 | ≤ 30 |  | ≤ 30 | 80 to 89 | 80 to 89 | 90 to 100 | ≤ 30 | ≤ 30 | 90 to 100 |  | 90 to 100 | 90 to 100 | 80 to 89 | pest or weed control at 500 ppm ([1]; 500 ppm of active ingredient): 70 to 79%
 | COC(=O)CC[C@H](NC(=O)c1cc(Cl)c(Cl)s1)C(=O)OC [CMP12, reference compound] | < 20 |  |  |  |  |  |  |  |  |  |  |  |  |  |  |  |  |  | pest or weed control at 31 ppm ([11]; 31 ppm of active ingredient): 10%
 | O=C(NC1(C(=O)O)CC1)c1cc(Br)c(Br)s1 [CMP1, reference compound] |  |  |  |  |  |  | 10 |  |  |  |  |  |  |  | 0 |  |  | 0 | efficacy ([6]; 31 ppm of active ingredient): 10* %
